{"source": "patent US5506213A", "about": "“Adminstration of 2'-halo-2'-deoxy adenosine to treat inflammatory bowel disease” (priority 1994, dated 1996)", "key": {"[1]": {"test_system": "circulating peripheral blood monocytes, lymphocytes, neutrophils and platelets", "assay": "Cytotoxicity of CdA in vivo: blood cell counts in cutaneous T-cell lymphoma patients", "design": "species or system human", "procedure": "FIG. 1 is a graph showing the results of a study of the cytotoxicity of 2-chlorodeoxyadenosine (CdA) toward three cell types in the peripheral blood of eight cutaneous T-cell lymphoma patients. A continuous intravenous infusion of CdA (0.1 mg/ml in isotonic saline) was administered to each patients at a dosage of 0.1 mg/kg per day, with the patients receiving therapy for seven days. Blood samples were removed daily and cell counts performed, with averaged values being shown. Graph symbols are as follows: open squares indicate the monocytes; plus signs indicate neutrophils (X10^-1); and closed diamonds indicate lymphocytes. The cell concentration (ordinate) is plotted for the day of treatment (abscissa) on which it is measured.\nThe effect of 2-chlorodeoxyadenosine (CdA) administration upon the level of circulating peripheral blood monocytes, lymphocytes, neutrophils and platelets was determined as follows.\nEight cutaneous T-cell lymphoma patients were administered continuous intravenous infusion of a composition containing 2-chlorodeoxyadenosine at a dosage of 0.1 mg/kg of body weight per day in isotonic saline. Blood samples were obtained daily and the number of viable cells present were enumerated daily for seven days after treatment."}, "[2]": {"test_system": "normal human monocytes", "assay": "In vitro cytotoxicity toward human monocytes (MTT reduction assay)", "format": "cell-based", "settings": "for IC50: Homo sapiens, Monocyte", "description": "The percentage of viable cells remaining after treatment (ordinate) is plotted against the concentration of CdA utilized (abscissa), on a linear scale.\nPeripheral blood monocytes and lymphocytes were isolated by well known methods from normal subjects. […] The human fibroblast cell line GMO1380 was obtained originally from the NIGMS Human Genetic Mutant Cell Repository, Camden, N.J., and cultured under the same conditions as above. That cell line was from a normal fetal lung.\nMeth., 65: 55-63. After culturing for up to five days, 3-(4,5-dimethylthiazol-2-yl)-2,5-diphenyl tetrazolium bromide (MTT) at 0.2 mg (40 μl) was admixed with each well and the incubation was continued for another 4 hours. The plates were then centrifuged at 1000×g for 10 minutes, and supernatants were carefully aspirated with a finely drawn pipette.\nAcidified isopropanol (100 μl; using 0.04N HCl) was added to each well.\nViable cell numbers were determined using a Dynatech microplate spectrophotometer, measuring absorbance at a wavelength of 570 nanometers (nm), using a reference wavelength of 630 nm."}, "[3]": {"test_system": "DNA strand breaks in human monocytes", "assay": "DNA damage in monocytes, fluorescent assay for DNA unwinding in alkaline solution", "format": "cell-based", "settings": "for additional residual double-stranded DNA (repair) after CdA removal: over the next four hours", "procedure": "FIG. 4 is a graph of the dose- and time-dependence for CdA in inducing DNA strand breaks in monocytes in vitro.\nMonocytes were plated as discussed previously, and were then contacted with compositions containing various concentrations of CdA. The amount of DNA damage in monocytes exposed to CdA was determined by the fluorescent assay for DNA unwinding in alkaline solution described by Birnboim and Jevcak (1981) Cancer Res., 41:1889-1892, modified to accommodate lower cell numbers (Thierry et al. (1985) Radiation Res., 102:347-358).\nThe unwinding rate of DNA in alkaline solution at 15 degrees C. is proportional to the number of DNA strand breaks or alkali-labile sites. The ethidium bromide fluorescence of residual duplex DNA in samples exposed to pH 12.8 for one hour was compared to the fluorescence of a DNA aliquot that was not exposed to alkali. The percent residual double-stranded DNA at 1 hour was taken as a measure of the DNA damage in the sample. The results are illustrated in FIG. 4.\nThe repair of monocyte DNA damage caused by CdA was compared to the damage caused by gamma irradiation. Monocytes were pre-exposed to 0.1 or 1.0 μM CdA for four hours. At the end of this time, approximately 60 percent residual double-stranded DNA was present in the cells. The CdA was removed, and the amount of residual double-stranded DNA was calculated over the next four hours. Any increase in doublestranded DNA represents ongoing repair mechanisms."}, "[4]": {"test_system": "IL-6", "assay": "Spontaneous IL-6 secretion by cultured monocytes, B9.9 hybridoma bioassay", "format": "cell-based, human", "procedure": "FIG. 6 is a graph that illustrates the effects of relatively low doses of CdA used to contact monocytes for a 72 hour time period. Monocyte release of interleukin-6 (IL-6; closed diamonds) and phagocytosis of antibody-coated red blood cells (RBC; closed squares) were examined, as was the viability of the cultured monocytes (open squares). Effects are expressed as a percentage of control values versus the CdA concentration in nanomoles (nM).\nThe ability of dialyzed culture supernatants to promote proliferation of B9.9 hybridoma cells is a measure of IL-6 activity (Helle et al. (1988) Eur. J. Immunol., 18:1535-1540). Monocytes spontaneously secrete IL-6 upon adherence to plastic during short-term in vitro culture (Guerne et al. (1989) J. Clin. Invest., 83:585-592). Monocytes cultured in autologous plasma 20 percent for three days secreted approximately 18 U per ml of IL-6, as determined by the bioassay standard curve using rIL-6.\nThe spontaneous secretion, of IL-6 by cultured monocytes was measured by the hybridoma growth factor bioassay as described by Guerne et al. (1989) J. Clin. Invest., 83:585-592. In this assay, the proliferation of a B9.9 murine hybridoma subclone is dependent on the presence of IL-6. […]"}, "[5]": {"test_system": "neopterin", "assay": "Plasma neopterin levels in a rheumatoid arthritis patient treated with CdA", "format": "in vivo, human", "procedure": "Plasma neopterin levels were measured in a patient with rheumatoid arthritis. Neopterin is released from monocytes and macrophages activated in an immune response. Huber et al., J. Exp. Med., 160:310-316 (1984). Likewise, high levels of neopterin are associated with clinical activity in patients with rheumatoid arthritis. Clinical activity was rated by the following criteria: duration of morning stiffness, range of motion, subjective pain score, measurement of grip strength, synovial thickening, and number of inflamed joints. Reibnegger et al., Arthritis Rheum., 29:1063-1070 (1986). The levels of neopterin in patients with rheumatoid arthritis are proportional to both clinical activity and the levels of activated monocytes and macrophages in these patients.\nIn this study, a patient with rheumatoid arthritis received CdA by a weekly, four hour intravenous infusion at a dosage of 0.125 to 0.15 mg/kg body weight for an approximately three month course of therapy. Plasma neopterin levels were measured throughout this treatment regime."}}, "note": "Read-outs that look alike come from different tables or passages of the source."}
{"smiles": "Nc1nc(Cl)nc2c1ncn2[C@H]1C[C@H](O)[C@@H](CO)O1", "note": "[CdA, 2-chloro-9,1'-beta-D-2'-deoxyribosyladenine]", "values": [{"measurement": "time for monocyte numbers to return to approximately pre-administration values", "setting": "[1]; after cessation of the CdA administration", "result": "within about two weeks"}, {"measurement": "decrease in number of circulating lymphocytes", "setting": "[1]; by the end of period of infusion, 0.1 mg/kg per day", "result": 30, "unit": "%"}, {"measurement": "patients whose monocytes disappeared completely from the circulation", "setting": "[1]; by the seventh treatment day, 0.1 mg/kg per day", "result": "four of the eight"}, {"measurement": "mean level of monocyte decrease", "setting": "[1]; day 7, 0.1 mg/kg per day continuous intravenous infusion, eight patients", "result": 80, "unit": "%"}, {"measurement": "number of circulating neutrophils", "setting": "[1]; seven days, 0.1 mg/kg per day", "result": "no significant decrease"}, {"measurement": "platelet and hemoglobin levels", "setting": "[1]; seven days, 0.1 mg/kg per day", "result": "constant"}, {"measurement": "IC50", "setting": "[2]; 120 h, five days exposure (FIG. 2), read-out: CdA concentration at which 50 percent of the cultured monocytes were killed", "result": 20, "unit": "nM"}, {"measurement": "IC50", "setting": "[2]; another study, freshly isolated monocytes, read-out: CdA concentration at which 50 percent of freshly isolated monocytes were killed", "result": 22, "unit": "nM"}, {"measurement": "monocyte sensitivity to CdA in the presence of deoxycytidine", "setting": "[2]; deoxycytidine 100 μM", "result": "substantially reduced"}, {"measurement": "time to appearance of DNA breaks", "setting": "[3]; 10 nM CdA", "result": "≤ 2", "unit": "h"}, {"measurement": "additional residual double-stranded DNA (repair) after CdA removal", "setting": "[3]; 0.1 μM CdA", "result": 10, "unit": "%"}, {"measurement": "additional residual double-stranded DNA (repair) after CdA removal", "setting": "[3]; 1.0 μM CdA", "result": "no increase"}, {"measurement": "residual double-stranded DNA", "setting": "[3]; pre-exposed to 0.1 or 1.0 μM CdA for four hours", "result": "approximately 60%"}, {"measurement": "supernatant IL-6", "setting": "[4]; cytotoxic concentrations of CdA", "result": "high levels of IL-6"}, {"measurement": "spontaneous secretion of IL-6 into the culture supernatant", "setting": "[4]; sub-toxic concentrations of CdA, three days", "result": "inhibited the spontaneous secretion of IL-6"}, {"measurement": "plasma neopterin", "setting": "[5]; by about day 84 of therapy", "result": "about 18 nM"}, {"measurement": "plasma neopterin", "setting": "[5]; days 14 through 70 after the first administration", "result": "about 30 nM"}, {"measurement": "plasma neopterin", "setting": "[5]; initial value, weekly four hour i.v. infusion 0.125 to 0.15 mg/kg", "result": "about 60 nM"}, {"measurement": "plasma neopterin", "setting": "[5]; within the first seven days of therapy", "result": "about 25 nM"}]}
